Source: patent publication US5260447A, “Polyhydroxycyclopentane derivatives, their preparation and their therapeutic use” (Sankyo Company, Limited, priority 1992, dated 1993)

Key:
silkworm trehalase = molecular target: T1, silkworm trehalase (Bombyx mori, UniProt P32358); experiment: Inhibitory activity against silkworm trehalase (crude enzyme from silkworm larvae, glucose determination); assay type: biochemical; conditions: pH 5.6, 37° C., 15 min preincubation, 15 min reaction; substrate trehalose; read-out: concentration needed to inhibit the enzyme activity by 50% (IC50), silkworm trehalase (converted)
T1 construct: Ten silkworm larvae of the fifth instar (total weight 44 g) were homogenized; from tissue; host or cells: whole silkworm larvae, fifth instar; acetone precipitate of homogenate supernatant
T1 sequence (P32358 16-579): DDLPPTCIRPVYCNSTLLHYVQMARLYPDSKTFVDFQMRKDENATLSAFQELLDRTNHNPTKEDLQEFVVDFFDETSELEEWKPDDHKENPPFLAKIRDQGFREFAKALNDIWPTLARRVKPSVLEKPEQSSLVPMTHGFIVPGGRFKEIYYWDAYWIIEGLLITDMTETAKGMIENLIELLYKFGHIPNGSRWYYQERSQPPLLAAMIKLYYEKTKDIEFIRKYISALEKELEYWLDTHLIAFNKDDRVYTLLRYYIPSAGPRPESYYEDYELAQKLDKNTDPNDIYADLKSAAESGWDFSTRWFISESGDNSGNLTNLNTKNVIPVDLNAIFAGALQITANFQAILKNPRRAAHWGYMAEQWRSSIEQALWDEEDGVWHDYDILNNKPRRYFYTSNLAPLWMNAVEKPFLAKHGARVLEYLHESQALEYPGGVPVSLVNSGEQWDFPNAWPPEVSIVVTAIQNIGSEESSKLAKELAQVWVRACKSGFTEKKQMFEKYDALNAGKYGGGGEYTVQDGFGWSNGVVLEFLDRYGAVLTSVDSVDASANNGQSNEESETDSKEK
Method: Inhibitory activity of trehazolin against silkworm trehalase
Ten silkworm larvae of the fifth instar (total weight 44 g) were homogenized using a Polytrone (trade mark) homogenizer in 120 ml of a buffer solution (pH 5.6) prepared using 20 mM of citric acid and 40 mM of disodium phosphate for 2 minutes, whilst ice-cooling (the same buffer solution was also used hereafter). The homogenized mixture was then centrifuged at a speed of 6,000 rpm for 10 minutes, and the supernatant was separated. 240 ml of acetone were added to 120 ml of the supernatant, whist ice-cooling and stirring, and the resulting mixture was centrifuged at a speed of 9,000 rpm for 20 minutes. The sediment was separated and dissolved in water, and the resulting solution was lyophilized, to give 2.0 g of the crude enzyme.
130 μl of the above buffer solution, 50 μl of a sample solution containing trehazolin at various concentrations and 50 μl of a silkworm enzyme solution prepared as described above and containing 4 mg/ml of the enzyme were placed in a test-tube, and the mixture was shaken on a water bath kept at 37° C. for 15 minutes. […]
The reaction was conducted using glucose C-test Wako (a product of Wako Pure Chemical Industries Ltd.) and 10-fold quantities of the sample solution over that of the standard procedure.

Solubility = assay type: physicochemical
rat sucrase = molecular target: T2, rat sucrase (Rattus norvegicus, UniProt P23739); experiment: Inhibitory activity against rat sucrase (brush border membrane enzyme of rat small intestine, glucose liberated at 492 nm); assay type: biochemical, rat (Wistar strain); conditions: pH 6.2, 37°, 20 minutes; substrate sucrose; read-out: concentration required to inhibit the activity of rat sucrase by 50% (IC50) (converted)
T2 construct: a brush border membrane enzyme solution of a rat small intestine was prepared from the small intestines; from tissue; host or cells: small intestine brush border membrane, male Wistar rats
T2 sequence (P23739 1014-1841 limits assumed): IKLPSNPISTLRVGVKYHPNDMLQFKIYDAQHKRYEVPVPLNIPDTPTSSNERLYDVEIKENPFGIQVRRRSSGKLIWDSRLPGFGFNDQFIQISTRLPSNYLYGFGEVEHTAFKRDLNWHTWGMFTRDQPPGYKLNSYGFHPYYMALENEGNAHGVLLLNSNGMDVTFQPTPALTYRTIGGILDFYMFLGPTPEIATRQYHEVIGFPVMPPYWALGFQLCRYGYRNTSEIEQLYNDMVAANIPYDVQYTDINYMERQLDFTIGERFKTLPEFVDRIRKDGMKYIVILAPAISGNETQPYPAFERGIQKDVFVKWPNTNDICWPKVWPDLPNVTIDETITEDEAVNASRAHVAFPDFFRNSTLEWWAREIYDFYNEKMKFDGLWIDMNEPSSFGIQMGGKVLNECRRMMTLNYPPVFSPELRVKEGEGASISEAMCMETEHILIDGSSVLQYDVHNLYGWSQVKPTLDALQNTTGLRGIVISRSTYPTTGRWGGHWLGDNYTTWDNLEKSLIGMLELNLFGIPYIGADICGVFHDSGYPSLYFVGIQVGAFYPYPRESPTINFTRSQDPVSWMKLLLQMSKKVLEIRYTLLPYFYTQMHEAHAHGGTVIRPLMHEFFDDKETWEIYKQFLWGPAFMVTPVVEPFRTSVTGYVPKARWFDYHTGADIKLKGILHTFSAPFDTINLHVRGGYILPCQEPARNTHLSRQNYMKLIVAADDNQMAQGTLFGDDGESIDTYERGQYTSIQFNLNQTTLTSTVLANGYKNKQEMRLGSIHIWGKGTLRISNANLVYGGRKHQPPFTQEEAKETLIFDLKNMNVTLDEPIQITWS
T2 sequence (P23739 1-1013 partner limits assumed): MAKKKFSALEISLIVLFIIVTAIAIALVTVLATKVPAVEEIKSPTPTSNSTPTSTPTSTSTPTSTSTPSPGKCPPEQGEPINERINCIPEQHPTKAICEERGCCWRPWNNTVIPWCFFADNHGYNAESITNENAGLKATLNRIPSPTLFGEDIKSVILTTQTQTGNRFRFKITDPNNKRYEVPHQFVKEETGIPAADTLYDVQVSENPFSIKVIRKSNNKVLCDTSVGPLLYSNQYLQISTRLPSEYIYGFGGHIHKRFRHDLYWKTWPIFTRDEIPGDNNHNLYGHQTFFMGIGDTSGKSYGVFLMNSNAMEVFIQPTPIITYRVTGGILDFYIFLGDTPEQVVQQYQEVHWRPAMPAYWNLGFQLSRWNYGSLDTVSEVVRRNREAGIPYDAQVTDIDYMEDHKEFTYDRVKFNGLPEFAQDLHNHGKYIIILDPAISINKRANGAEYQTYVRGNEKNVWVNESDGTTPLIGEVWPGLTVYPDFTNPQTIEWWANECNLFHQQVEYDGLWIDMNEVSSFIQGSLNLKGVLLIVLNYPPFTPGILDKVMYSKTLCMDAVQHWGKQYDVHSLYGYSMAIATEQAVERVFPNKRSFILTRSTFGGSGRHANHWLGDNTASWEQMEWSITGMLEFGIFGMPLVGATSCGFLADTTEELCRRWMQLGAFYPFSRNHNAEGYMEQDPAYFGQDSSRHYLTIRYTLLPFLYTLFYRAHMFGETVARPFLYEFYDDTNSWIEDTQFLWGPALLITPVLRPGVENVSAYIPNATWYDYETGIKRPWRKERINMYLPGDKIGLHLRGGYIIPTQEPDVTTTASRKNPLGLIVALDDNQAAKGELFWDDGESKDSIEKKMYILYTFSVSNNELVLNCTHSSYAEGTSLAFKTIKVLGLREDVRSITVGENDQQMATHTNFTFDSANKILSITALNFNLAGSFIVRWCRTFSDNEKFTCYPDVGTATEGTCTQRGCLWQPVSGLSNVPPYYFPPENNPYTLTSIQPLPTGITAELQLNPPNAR
Method: Inhibitory activity of 2-amino-4-(hydroxymethyl)-3a-5,6,6a-tetrahydro-4H-cyclopent[d]oxazole-4,5,6-triol [compound (II)] against rat sucrase
According to the method of M. Kessler et al. Biochimica et Biophysica Acta, 506, 136-154(1978)], a brush border membrane enzyme solution of a rat small intestine was prepared from the small intestines of three male rats of the Wistar strain and suspended in 3 ml of physiological saline.
A sample of 4-aminoantipyrine (A 4382) was purchased from Sigma Chemical Co., and samples of peroxidase (Grade I) and glucose oxidase (Grade I) were purchased from Boehringer Mannheim Co. A buffer solution (pH 6.2) comprising 20 mM of citric acid and 40 mM of disodium phosphate was used as the diluent in the following experiment.
Each well of a micro-titer plate with 96 wells (a product of Falcon Co.) was filled with 130 μl in all of a mixture which contained 0.2 mg of bovine serum albumin (Sigma, A 7906), 3 units of glucose oxidase, 0.132 unit of peroxidase, 20 μg of 4-aminoantipyrine, 40 μg of phenol, 3 μ mole of sucrose and a test compound. To the well were added 20 μl of 100-fold diluted solution of a brush border membrane enzyme solution of rat small intestine. The mixture was allowed to react at 37° for 20 minutes and the quantity of glucose liberated was monitored by absorbance at 492 nm. […]

β-glucosidase = experiment: Inhibitory activity against β-glucosidase (p-nitrophenyl-β-D-glucopyranoside hydrolysis, absorbance at 405 nm); assay type: biochemical; conditions: pH 5.6, 37° C., 15 min preincubation, 20 min reaction; enzyme from almonds
Source text: Inhibitory activity of 5-amino-1-(hydroxymethyl)cyclopentane-1,2,3,4-tetraol against β-glucosidase
Samples of β-glucosidase (separated from almonds), p-nitrophenyl-β-D-glucopyranoside, deoxynojirimycin and castanospermine used in this experiment were all purchased from Sigma Chemicals Co.
The test compounds used were 5-amino-1-(hydroxymethyl)cyclopentane-1,2,3,4-tetraol [compound (I)], and deoxynojirimycin or castanospermine, both of which are known compounds having this type of activity.
A mixture of 0.01 unit/ml of β-glucosidase and 100 μl of a buffer solution (pH 5.6) comprising 20 mM of citric acid, 40 mM of disodium phosphate and the compound under test was allowed to stand at 37° C. for 15 minutes. At the end of this time, 50 μl of a buffer solution containing 3 mg/ml of p-nitrophenyl-β-D-glucopyranoside were added to the mixture, which was then allowed to react at 37° C. for 20 minutes. 20 μl of a 1M glycine/sodium hydroxide buffer solution (pH 10.4) were added to the reaction mixture, and the quantity of p-nitrophenol liberated was monitored by absorbance at 405 nm. Table 7 lists the concentrations β-glucosidase by 50% (IC50).

Row | Solubility in acetone (Solubility) | Solubility in chloroform (Solubility) | Solubility in water (Solubility) | IC50 (rat sucrase) [µM] | 50% inhibitory concentration of β-glucosidase (IC50) (β-glucosidase) [µg/mL] | SMILES | IC50 (silkworm trehalase) [µM] | Solubility in methanol (Solubility; methanol)
1 | insoluble | insoluble | soluble | – | 1.0 | NC1C(O)C(O)C(O)C1(O)CO (stereo not drawn) [Compound (I), 5-amino-1-(hydroxymethyl)cyclopentane-1,2,3,4-tetraol] | – | –
2 | – | – | – | – | 15 | OC[C@H]1NC[C@H](O)[C@@H](O)[C@@H]1O [Deoxynojirimycin, deoxynojirimycin] | – | –

The remaining lines, values behind:

Row | SMILES | Solubility in acetone (Solubility) | Solubility in chloroform (Solubility) | Solubility in water (Solubility) | IC50 (rat sucrase) [µM] | 50% inhibitory concentration of β-glucosidase (IC50) (β-glucosidase) [µg/mL] | IC50 (silkworm trehalase) [µM] | Solubility in methanol (Solubility; methanol)
3 | OCC1OC(NC2=NC3C(O2)C(O)C(O)C3(O)CO)C(O)C(O)C1O (stereo not drawn) [trehazolin, reference compound] | insoluble | insoluble | soluble | – | – | 0.00546 | soluble
4 | NC1=NC2C(O1)C(O)C(O)C2(O)CO (stereo not drawn) [(II), 2-amino-4-(hydroxymethyl)-3a,5,6,6a-tetrahydro-4H-cyclopent[d]oxazole-4,5,6-triol] | insoluble | insoluble | soluble | 88.2 | – | – | –
5 | O[C@H]1[C@H](O)[C@@H](O)CN2CC[C@H](O)[C@H]12 [Castanospermine, castanospermine] | – | – | – | – | 4.3 | – | –
